# Values joined by “and” are separate entries in the source; they are usually repeats but may differ in a detail not shown here. Equal entries are not always repeated. “Also recorded” adds a separate entry of the source.
# How the values were obtained:
# respiratory system = test: Rat respiratory safety pharmacology study; format: in vivo; details: male Sprague Dawley rats, single oral doses of 3, 10 or 30 mg/kg
# [1] = system: central nervous system (CNS); test: Rat FOB / CNS safety pharmacology study; format: in vivo; details: male Sprague Dawley rats, single oral doses of 3, 10 or 30 mg/kg
# [2] = system: bacterial reverse mutation (Ames); test: In vitro bacterial reverse mutation (Ames) test; format: cell-based; details: in vitro bacterial assay, highest doses tested
# [3] = NHP exploratory 14-day non-GLP repeat-dose study; format: in vivo, cynomolgus monkey; details: male, cynomolgus monkey, in vivo; for NOAEL at 14 days: NHP
# Description: (§1) An exploratory 14-day non-GLP study was conducted in male NHPs (cynomolgus monkeys) for assessment of efficacy and toxicity parameters prior to the conduct of the 28-day GLP toxicity studies in rats and dogs.
# [4] = system: male NHPs (cynomolgus monkeys); test: NHP exploratory 14-day non-GLP repeat-dose study; format: in vivo, cynomolgus monkey
# Description: as §1
# mice = test: Repeat dose study in mice (sperm counts); format: in vivo, mouse
# rats = test: Mating trials with rats; format: in vivo, rat; details: control 88%
# male mice = test: Mouse single dose non-GLP study; format: in vivo
# male dogs = test: Dog single dose non-GLP study; format: in vivo
# [5] = In vitro stability in liver microsomes (human); format: in vitro ADME
# Description: (§2) Respective half-lives (T1/2) were 9.5 hours (human), 23.1 hours (monkeys), >23.1 hours (mice), >23.1 hours (rats), 19.6 hours (rabbits), and >23.1 hours (dogs).
# [6] = In vitro stability in microsomes (mouse); format: in vitro ADME; details: mice, read-out: Half-life (T1/2) in microsomes
# Description: as §2
# [7] = In vitro stability in microsomes (dog); format: in vitro ADME; details: dogs
# Description: as §2
# [8] = Metabolite identification in pooled hepatocytes (all species); format: in vitro ADME, human, monkey, mouse, rat, rabbit, dog
# Excerpt: Overall, each metabolite was present at less than 10% of the recoverable metabolic profile across all species. The rat produced 6 of the 8 quantified human metabolites and the dog produced 4 of the 8 human metabolites. […] Because the presence of these metabolites was ≤10% of the recoverable metabolic profile, and because all other human metabolites were represented in either the rat or dog, these 2 species were considered relevant species to assess toxicity.
# CYP2B6 = CYP2B6 (Homo sapiens, UniProt P20813); test: In vitro CYP inhibition (direct and time-dependent), CYP2B6; format: in vitro ADME
# Excerpt: (§3) However, the likelihood of drug interactions is low since healthy participants who meet eligibility criteria will be enrolled in this Phase 1b/2a clinical trial. An allowance for select concomitant medications may be considered for select participants at the discretion of the investigator and/or sponsor if drug profiles are not anticipated to interact with Compound A. Such medications may include, but will not be limited to paracetamol or ibuprofen as assessed by both the PI and the Sponsor. […] Additional precautions to avoid grapefruit, pomegranates, star fruit, or Seville oranges for 7 days prior to admission, and juices and products containing these fruits for the duration of the study will be taken.
# CYP2C8 = CYP2C8 (Homo sapiens, UniProt P10632); test: In vitro CYP inhibition (direct and time-dependent), CYP2C8; format: in vitro ADME
# Excerpt: as §3
# CYP2C19 = CYP2C19 (Homo sapiens, UniProt P33261); test: In vitro CYP inhibition (direct and time-dependent), CYP2C19; format: in vitro ADME
# Excerpt: as §3
# CYP2D6 = CYP2D6 (Homo sapiens, UniProt P10635); test: In vitro CYP inhibition (direct and time-dependent), CYP2D6; format: in vitro ADME
# Excerpt: as §3
# [9] = In vitro molar extinction coefficient assay; format: physicochemical; details: UV light
# Excerpt: As a result, participants will be advised to minimize exposure to sunlight, wear sunglasses and clothing that minimizes exposure to sunlight, and use sun cream on exposed areas when going outdoors during the 28-Day dosing period and until 10 days post last dose.
# [10] = system: mice, rats, dogs and NHPs; test: Research in nonclinical models (mice, rats, dogs and NHPs); format: in vivo, mouse, rat, dog, NHP
# [11] = Dog single dose cardiovascular study; details: male, Beagle, dog, in vivo
# male Beagle dogs = test: Dog single dose cardiovascular study; details: male Beagle dogs, single dose 2.5, 5 or 25 mg/kg
# [12] = Dog GLP 28-day repeat-dose study, PK at the NOAEL; details: male, Beagle, in vivo, 5 mg/kg, 5 mg/kg (NOAEL); for AUC(0-t): AUC0-24, dog
# Chain of CYP2D6 (P10635 whole entry): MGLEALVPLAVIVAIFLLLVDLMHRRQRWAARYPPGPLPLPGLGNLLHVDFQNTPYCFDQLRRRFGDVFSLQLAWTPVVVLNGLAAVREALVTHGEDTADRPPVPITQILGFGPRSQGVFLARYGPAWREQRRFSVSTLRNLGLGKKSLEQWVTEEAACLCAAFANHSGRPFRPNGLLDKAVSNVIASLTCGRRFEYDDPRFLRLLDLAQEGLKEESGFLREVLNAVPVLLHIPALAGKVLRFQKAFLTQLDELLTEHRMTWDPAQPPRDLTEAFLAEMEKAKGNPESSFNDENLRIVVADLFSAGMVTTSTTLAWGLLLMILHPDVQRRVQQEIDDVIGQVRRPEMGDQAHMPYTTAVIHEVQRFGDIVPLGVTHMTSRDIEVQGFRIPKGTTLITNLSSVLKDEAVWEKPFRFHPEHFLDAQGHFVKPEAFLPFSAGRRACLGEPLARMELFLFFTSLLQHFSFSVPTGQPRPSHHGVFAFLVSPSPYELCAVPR
# Chain of CYP2B6 (P20813 whole entry): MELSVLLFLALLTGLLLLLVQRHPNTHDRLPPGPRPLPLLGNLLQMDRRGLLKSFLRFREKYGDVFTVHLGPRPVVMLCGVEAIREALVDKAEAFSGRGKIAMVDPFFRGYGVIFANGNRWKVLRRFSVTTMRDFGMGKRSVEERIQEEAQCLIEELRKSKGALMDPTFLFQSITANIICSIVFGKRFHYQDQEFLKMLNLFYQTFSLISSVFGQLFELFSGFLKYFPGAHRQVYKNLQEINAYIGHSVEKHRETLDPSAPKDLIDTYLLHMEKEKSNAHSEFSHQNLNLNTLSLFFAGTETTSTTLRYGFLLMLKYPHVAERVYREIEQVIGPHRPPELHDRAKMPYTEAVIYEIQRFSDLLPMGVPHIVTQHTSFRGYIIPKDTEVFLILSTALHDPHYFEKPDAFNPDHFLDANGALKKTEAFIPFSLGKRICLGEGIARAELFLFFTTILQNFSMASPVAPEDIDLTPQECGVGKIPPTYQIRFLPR
# Chain of CYP2C19 (P33261 whole entry): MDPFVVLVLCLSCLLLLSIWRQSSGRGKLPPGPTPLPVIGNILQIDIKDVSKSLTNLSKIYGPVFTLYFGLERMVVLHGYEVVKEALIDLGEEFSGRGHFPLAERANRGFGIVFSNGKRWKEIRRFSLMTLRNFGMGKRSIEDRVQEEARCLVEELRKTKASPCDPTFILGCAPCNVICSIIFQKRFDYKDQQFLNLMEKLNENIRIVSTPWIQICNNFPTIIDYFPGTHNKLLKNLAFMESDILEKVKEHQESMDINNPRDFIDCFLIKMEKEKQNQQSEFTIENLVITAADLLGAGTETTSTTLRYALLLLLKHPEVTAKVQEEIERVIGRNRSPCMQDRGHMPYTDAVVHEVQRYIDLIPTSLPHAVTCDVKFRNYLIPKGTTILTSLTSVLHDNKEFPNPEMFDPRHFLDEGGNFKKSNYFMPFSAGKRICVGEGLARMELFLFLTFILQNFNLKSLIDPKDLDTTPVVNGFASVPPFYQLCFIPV
# Chain of CYP2C8 (P10632 whole entry): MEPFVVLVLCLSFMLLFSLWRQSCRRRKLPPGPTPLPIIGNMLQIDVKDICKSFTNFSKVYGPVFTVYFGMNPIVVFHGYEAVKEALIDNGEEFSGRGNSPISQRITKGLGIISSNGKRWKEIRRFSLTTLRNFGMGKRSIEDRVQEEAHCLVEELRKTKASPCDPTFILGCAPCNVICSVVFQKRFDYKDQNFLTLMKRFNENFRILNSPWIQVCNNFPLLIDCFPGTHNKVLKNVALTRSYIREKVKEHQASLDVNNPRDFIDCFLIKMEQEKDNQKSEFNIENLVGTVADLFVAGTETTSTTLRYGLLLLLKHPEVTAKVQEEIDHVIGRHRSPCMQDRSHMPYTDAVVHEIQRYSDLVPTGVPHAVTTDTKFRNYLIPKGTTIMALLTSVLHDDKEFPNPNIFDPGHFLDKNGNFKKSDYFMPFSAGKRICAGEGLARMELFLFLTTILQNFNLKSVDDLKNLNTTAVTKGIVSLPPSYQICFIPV
compound,measurement,setting,value
Cc1ccc(C2=CC(C)(C)Oc3ccc(-c4ccc(-c5ccc(C(=O)O)cc5)[nH]4)cc32)cc1 [Compound A],Main outcomes: rat respiratory (adverse effects on respiratory system),respiratory system,no adverse effects; also recorded: Clean
same,Main outcomes: rat FOB (adverse effects on CNS),[1],no adverse effects; also recorded: Clean
same,Genotoxicity: Ames,[2],not genotoxic; also recorded: no genotoxic potential; also recorded: Clean
same,Human equivalent dose of NOAEL at 14 days,"[3]; NHP 14-day non-GLP, NOAEL 10 mg/kg/day, read-out: HED of NOAEL",3.2 mg/kg/day
same,NOAEL at 14 days,"[3]; 14-day repeat dose non-GLP, 5-20 mg/kg/day",10 mg/kg/day
same,NOAEL at 14 days,[3]; 14-day repeat-dose,10 mg/kg
same,NOAEL increase over the minimum efficacious dose in rats,[4]; NHP NOAEL 10 mg/kg/day,22 fold
same,Signs of toxicity,"[4]; cynomolgus monkey, in vivo",No signs of toxicity
same,HED (based on BSA),[4]; of NHP 14-day repeat-dose NOAEL,3.23 mg/kg and 3.2 mg/kg
same,HED for 60 kg BW,[4]; of NHP repeat-dose NOAEL,192 mg
same,HED for 80 kg BW,[4]; of NHP repeat-dose NOAEL,256 mg
same,Reversibility of antispermatogenic effect,mice; mice,≤ 1 spermatogenic cycle
same,Lowest dose with decreases in sperm counts,"mice; mouse, repeat dose for 4 weeks",2.5 mg/kg/day
same,Fertility,rats; 3 mg/kg/day dose group,13%
same,Fertility,rats; 10 mg/kg/day dose group,6%
same,Fertility,rats; 30 mg/kg/day dose group,0%
same,Tolerated single dose (highest dose tested),"male mice; male mice, non-GLP study","1,000 mg/kg"
same,HED of tolerated single dose,"male mice; mice, 1,000 mg/kg",81.3 mg/kg
same,HED of tolerated single dose,"male dogs; dogs, 500 mg/kg",277.8 mg/kg
same,Tolerated single dose (highest dose tested),"male dogs; male dogs, non-GLP study",500 mg/kg
same,Half-life (T1/2) in microsomes,[5],9.5 h
same,half-life,[6],> 23.1 h
same,half-life,"[7]; dog, read-out: Half-life (T1/2) in microsomes",> 23.1 h
same,Compound remaining intact,[7]; 90 minutes,101%
same,Metabolites yielded by biotransformation,"[8]; 10 μM, pooled hepatocytes",10 metabolites
same,Human metabolites produced (of the 8),[8]; dog hepatocytes,4
same,Quantified human metabolites produced (of the 8),[8]; rat hepatocytes,6
same,IC50,CYP2B6; CYP2B6,6.1 µM
same,Time-dependent inhibition (TDI),"CYP2B6; CYP2B6, 0.3 to 100 μM",no TDI potential
same,IC50,CYP2C8; CYP2C8,8.37 µM
same,Time-dependent inhibition (TDI),"CYP2C8; CYP2C8, 0.3 to 100 μM",no TDI potential
same,IC50,CYP2C19; CYP2C19,85.1 µM
same,Time-dependent inhibition (TDI),"CYP2C19; CYP2C19, 0.3 to 100 μM",no TDI potential
same,IC50,CYP2D6; CYP2D6,> 100 µM
same,Time-dependent inhibition (TDI),"CYP2D6; CYP2D6, 0.3 to 100 μM",NADPH-independent time-dependent inhibition
same,Phototoxicity potential,[9],potential to cause phototoxicity
same,Testosterone levels,"[10]; mice, rats, dogs and NHPs",does not alter testosterone levels
same,Virility,"[10]; mice, rats, dogs and NHPs",does not affect virility
same,Repeat dosing after which impairment of fertility / reduction of sperm counts was shown,[10]; nonclinical models,3-4 weeks
same,NOAEL,[11],25 mg/kg
same,Main outcomes: dog cardiovascular (effects),male Beagle dogs,no effects; also recorded: Clean
same,AUC(0-t),"[12]; Day 1, mean",43800 ng·h/mL
same,AUC(0-t),"[12]; Day 28, mean",80800 ng·h/mL
same,Cmax,"[12]; Day 1, n = 9, mean",3410 ng/mL
same,Cmax,"[12]; Day 28, mean",4800 ng/mL
same,half-life,"[12]; T1/2, dog, Day 1, median",13.9 h
same,Tmax,"[12]; Tmax, Day 28, median",2 h

# — patent US20260191825A1, “CONTRACEPTIVE COMPOUNDS AND DOSING FOR THE SAME” (YourChoice Therapeutics, Inc., priority 2024, published 2026)
